In patent US11447477B2, “Indoleamine-2,3-dioxygenase inhibitor, the preparative method and the use thereof” (HINOVA PHARMACEUTICALS INC., priority 2017, dated 2022):

Biological target: human IDO1 protease (Homo sapiens (Human), UniProt P14902)
Test: Inhibitory activity against human IDO1 protease (absorbance test method)
Type: biochemical
Details: IDO1 (His-tag) enzyme, absorbance at 320 nm
Method: 1) Experimental Materials and Apparatus: • IDO1 (His-tag) enzyme (BPS Bioscience) • L-tryptophan (Sigma) • Methylene blue (Sigma) • Catalase originated from the liver of cattle (Sigma) • L-ascorbic acid (Sigma) • Glycerol (Sigma) • Potassium dihydrogen phosphate solution (Sigma) • Tween 20 (Sigma) • Automatic sampling platform Liquid handler (Bravo & Echo) • Microplate Reader SpectraMax M5e (Molecular Devices)
2) Test Method of Compounds: The Compounds are Determined by Absorbance Test Method:
The tested compounds and the reference compounds are dissolved in DMSO to prepare a high concentration of storage solution. The stock solution of reference compound was diluted with DMSO to prepare a 100× solution. In the first column of the working plate, 8 μL above tested compounds and 8 μL 100× reference compound were respectively added as the highest concentration, and then the highest concentrations were subjected to three times dilution to obtain 11 concentrations and prepare 100× solution. 0.5 μL solution was transferred from the above plate to the detection plate. […]. For HPE and ZPE control wells, 0.5 μL 100% DMSO was added.
25 μL 2×IDO1 (His-tag) enzyme solution (containing L-ascorbic acid, methylene blue, and catalase) was added to each well. 25 μL reaction solution without IDO1 (His-tag) enzyme was added into HPE control well. The test plate was centrifugated at 1000 rpm for 1 minute to mix well. Then, the test plate was incubated at room temperature for 30 minutes. 25 μL above 2× substrate (L-tryptophan) solution was added to each well. The test plate was centrifugated at 1000 rpm for 1 minute to mix well. The detection plate was placed on ELISA (SpectraMax M5e), the temperature was set at 25° C., and the absorbance (OD value) was measured at 320 nm every 10 minutes till 60 minutes.
Calculating the increase ratio of absorbance: the slope of the absorbance increase curve from 10 min to 60 min is derived from SpectralMax M5e. The inhibition coefficient of compound was calculated: the inhibition ratio of compound=(the absorbance increase ratio of ZPE control well−the absorbance increase ratio of compound well)/(the absorbance increase ratio of ZPE control well−the absorbance increase ratio of HPE control well)×100. Results was analyzed by Prism 5.0.

Chain of human IDO1 protease (P14902 whole entry): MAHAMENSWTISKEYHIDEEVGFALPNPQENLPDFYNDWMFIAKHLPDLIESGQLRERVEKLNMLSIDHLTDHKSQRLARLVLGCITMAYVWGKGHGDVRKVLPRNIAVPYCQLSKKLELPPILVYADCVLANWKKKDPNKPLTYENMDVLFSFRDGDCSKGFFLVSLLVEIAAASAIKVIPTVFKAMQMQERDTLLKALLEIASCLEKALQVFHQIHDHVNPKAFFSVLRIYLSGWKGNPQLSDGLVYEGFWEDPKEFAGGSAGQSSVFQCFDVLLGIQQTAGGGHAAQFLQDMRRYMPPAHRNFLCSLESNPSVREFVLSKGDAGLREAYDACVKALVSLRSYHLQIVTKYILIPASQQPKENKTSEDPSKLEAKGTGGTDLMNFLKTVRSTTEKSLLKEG

SMILES	IC50 [nM]
O/N=C(\Nc1ccc(F)c(Br)c1)c1nonc1NCC1CNC1 [Compound 2, 4-((Azetidin-3-ylmethyl)amino)-N-(3-bromo-4-fluorophenyl)-N′-hydroxyl-1,2,5-oxadiazole-3-formamidine]	182
CC(C)(C)OC(=O)N1CC(CNc2nonc2/C(=N/O)Nc2ccc(F)c(Br)c2)C1 [Compound 3, t-Butyl 3-(((4-(N-(3-bromo-4-fluorophenyl)-N′-hydroxylformamidinyl)-1,2,5-oxadiazole-3-yl)amino)methyl)azetidin-1-formate]	430
CC(C)(C)OC(=O)N1CCC(CNc2nonc2/C(=N/O)Nc2ccc(F)c(Br)c2)C1 (centres unmarked) [Compound 5]	276
O/N=C(\Nc1ccc(F)c(Br)c1)c1nonc1NCC1CCNC1 (centres unmarked) [Compound 6, N-(3-Bromo-4-fluorophenyl)-N′-hydroxyl-4-((azacyclopentan-3-ylmethyl)amino)-1,2,5-oxadiazole-3-formamidine]	88
NS(=O)(=O)N1CCC(CNc2nonc2/C(=N/O)Nc2ccc(F)c(Br)c2)C1 (centres unmarked) [Compound 7, N-(3-bromo-4-fluorophenyl)-N′-hydroxyl-4-(((1-sulfamoylpyrrolidin-3-yl)methyl)amino)-1,2,5-oxadiazole-3-formamidine]	59
NS(=O)(=O)N1CCCC(CNc2nonc2/C(=N/O)Nc2ccc(F)c(Br)c2)C1 (centres unmarked) [Compound 10, N-(3-bromo-4-fluorophenyl)-N′-hydroxyl-4-(((1-sulfamoylpiperidin-3-yl)methyl)amino)-1,2,5-oxadiazole-3-formamidine]	254
NS(=O)(=O)N1CCOC(CNc2nonc2/C(=N/O)Nc2ccc(F)c(Br)c2)C1 (centres unmarked) [Compound 11, N-(3-bromo-4-fluorophenyl)-N′-hydroxyl-4-(((4-sulfamoylmorpholin-2-yl)methyl)amino)-1,2,5-oxadiazole-3-formamidine]	206
NS(=O)(=O)N1CCC1CNc1nonc1/C(=N/O)Nc1ccc(F)c(Br)c1 (centres unmarked) [Compound 12, N-(3-Bromo-4-fluorophenyl)-N′-hydroxyl-4-(((1-sulfamoylazetidine-2-yl)methyl)amino)-1,2,5-oxadiazole-3-formamidine]	133
NS(=O)(=O)N1CCCC1CNc1nonc1/C(=N/O)Nc1ccc(F)c(Br)c1 (centres unmarked) [Compound 13, N-(3-Bromo-4-fluorophenyl)-N′-hydroxyl-4-(((1-sulfamoylazacyclopentan-2-yl)methyl)amino)-1,2,5-oxadiazole-3-formamidine]	214
NS(=O)(=O)N1CCCCC1CNc1nonc1/C(=N/O)Nc1ccc(F)c(Br)c1 (centres unmarked) [Compound 14, N-(3-bromo-4-fluorophenyl)-N′-hydroxyl-4-(((1-sulfamoylazacyclohexane-2-yl)methyl)amino)-1,2,5-oxadiazole-3-formamidine]	279
NS(=O)(=O)N1CCCC1CCNc1nonc1/C(=N/O)Nc1ccc(F)c(Br)c1 (centres unmarked) [Compound 16, N-(3-bromo-4-fluorophenyl)-N′-hydroxyl-4-((2-(1-sulfamoylazacyclopentan-2-yl)ethyl)amino)-1,2,5-oxadiazole-3-formamidine]	151
NS(=O)(=O)N1CCC(CNc2nonc2/C(=N/O)Nc2ccc(F)c(Br)c2)CC1 [Compound 18, N-(3-bromo-4-fluorophenyl)-N′-hydroxyl-4-(((1-sulfamoylazacyclohexane-4-yl)methyl)amino)-1,2,5-oxadiazole-3-formamidine]	114
NS(=O)(=O)N1CCC(CCNc2nonc2/C(=N/O)Nc2ccc(F)c(Br)c2)CC1 [Compound 19, N-(3-bromo-4-fluorophenyl)-N′-hydroxyl-4-((2-(1-sulfamoylazacyclohexane-4-yl)ethyl)amino)-1,2,5-oxadiazole-3-formamidine]	119
CS(=O)(=O)N1CCC(CNc2nonc2/C(=N/O)Nc2ccc(F)c(Br)c2)C1 (centres unmarked) [Compound 20, N-(3-bromo-4-fluorophenyl)-N′-hydroxyl-4-(((1-methylsulfonylazacyclopentan-3-yl)methyl)amino)-1,2,5-oxadiazole-3-formamidine]	79
O=S(=O)(C1CC1)N1CCC(CNc2nonc2/C(=N/O)Nc2ccc(F)c(Br)c2)C1 (centres unmarked) [Compound 21, N-(3-bromo-4-fluorophenyl)-N′-hydroxyl-4-(((1-cyclopropylsulfonylazacyclopentan-3-yl)methyl)amino)-1,2,5-oxadiazole-3-formamidine]	141
CN(C)S(=O)(=O)N1CCC(CNc2nonc2/C(=N/O)Nc2ccc(F)c(Br)c2)C1 (centres unmarked) [Compound 23, (Z)—N-(3-bromo-4-fluorophenyl)-4-(((1-(N,N-methylsulfonyl)pyrrolidinyl-3-yl)methyl)amino)-N′-hydroxyl-1,2,5-oxadiazol-3-carboxyoximide]	183
NS(=O)(=O)N1CCC(COc2nonc2/C(=N/O)Nc2ccc(F)c(Br)c2)C1 (centres unmarked) [Compound 27, (Z)—N-(3-Bromo-4-fluorophenyl)-N′-hydroxyl-4-((1-sulfamoylpyrrolidin-3-yl)methoxyl)-1,2,5-oxadiazol-3-formamidine]	628
CN(C)S(=O)(=O)N1CC(CNc2nonc2C(=NO)Nc2ccc(F)c(Br)c2)C1 [Compound 81]	142
CS(=O)(=O)N1CC(CNc2nonc2C(=NO)Nc2ccc(F)c(Br)c2)C1 [Compound 85]	115
O=S(=O)(C1CC1)N1CC(CNc2nonc2/C(=N/O)Nc2ccc(F)c(Br)c2)C1 [Compound 86, (Z)—N-(3-Bromo-4-fluorophenyl)-4-(((1-(cyclopropylsulfonyl)azido-3-yl)methyl)amino)-N′-hydroxyl-1,2,5-oxadiazol-3-carboxyoximide]	167
CN(C)C(=O)C(=O)N1CC(CNc2nonc2C(=NO)Nc2ccc(F)c(Br)c2)C1 [Compound 89]	183
NS(=O)(=O)N1CC(O)(CNc2nonc2C(=NO)Nc2ccc(F)c(Br)c2)C1 [Compound 92]	64
NS(=O)(=O)N1CCC(O)(CNc2nonc2C(=NO)Nc2ccc(F)c(Br)c2)C1 (centres unmarked) [Compound 151]	101
